The values that follow are results of earlier work, collected in patent US20120289611A1, “PECTIN COMPOUNDS, METHODS OF USING PECTIN COMPOUNDS, AND METHODS OF CONTROLLING WATER SOLUBILITY” (priority 2009, published 2012).

≈ marks a conversion by molar mass, not a printed value. Entries after “also recorded” stand apart in the source; their conditions may differ. Counter-ions that a name gives are not always drawn.

The conditions of the first data set: in water (where stated).
As to `COc1ccccc1OCCNCC(O)COc1cccc2[nH]c3ccccc3c12` (centres unmarked) [Carvedilol], the solubility (in general, how much of the substance goes into solution per volume) was 0.583 µg/mL (≈ 1.43 µM).

As for `CN(C)CCCC1(c2ccc(F)cc2)OCc2cc(C#N)ccc21` (centres unmarked) [Citalopram Hydrobromide], the solubility is 31 µg/mL.

For the molecule `COC(=O)[C@H](c1ccccc1Cl)N1CCc2sccc2C1` [Clopidogrel bisulphate], the solubility is 50.78 µg/mL. Regarding `CCC(=O)O[C@]1(C(=O)SCF)[C@H](C)C[C@H]2[C@@H]3C[C@H](F)C4=CC(=O)C=C[C@]4(C)[C@@]3(F)[C@@H](O)C[C@@]21C` [Fluticasone propionate], the solubility is 0.51 µg/mL (≈ 1.02 µM). Take `Cc1c(OCC(F)(F)F)ccnc1C[S+]([O-])c1nc2ccccc2[nH]1` (centres unmarked) [Lansoprazole]: the solubility is 0.97 µg/mL (≈ 2.63 µM). As for `CCCCc1nc(Cl)c(CO)n1Cc1ccc(-c2ccccc2-c2nn[nH]n2)cc1` [Losartan], the solubility is 0.82 µg/mL (≈ 1.94 µM). For the molecule `CCCCc1nc(Cl)c(CO)n1Cc1ccc(-c2ccccc2-c2nnn[n-]2)cc1.[K+]` [potassium losartan], the solubility is 0.82 µg/mL.

Still in this data set, the particulars now being: organic solvent named in the value; hydrochloride.
As to `CCc1ccc(CCOc2ccc(CC3SC(=O)NC3=O)cc2)nc1` (centres unmarked) [Pioglitazone hydrochloride], the “solubility in words, other solvents” value was “slightly soluble in anhydrous ethanol; also recorded: very slightly soluble in acetone and acetonitrile; also recorded: insoluble in ether”.

The data set is the same for the next values; noted with them: water, or solvent not stated.
Regarding `COc1ccc2nc([S@@+]([O-])Cc3ncc(C)c(OC)c3C)[nH]c2c1` [Esomeprazole], the solubility in words result is “very slightly soluble in water”. On to `C[C@@H]1C[C@H]2[C@@H]3CCC4=CC(=O)C=C[C@]4(C)[C@@]3(Cl)[C@@H](O)C[C@]2(C)[C@@]1(OC(=O)c1ccco1)C(=O)CCl` [Mometasone furoate], for which the solubility in words entry is given as “practically insoluble”. In the case of `Cc1cc2c(s1)Nc1ccccc1N=C2N1CCN(C)CC1` [Olanzapine], the solubility in words entry is “practically insoluble in water”. Turning to `CCc1ccc(CCOc2ccc(CC3SC(=O)NC3=O)cc2)nc1` (centres unmarked) [Pioglitazone hydrochloride], the solubility in words result is “practically insoluble in water”.

For the molecule `CCCc1nc2c(C)cc(-c3nc4ccccc4n3C)cc2n1Cc1ccc(-c2ccccc2C(=O)O)cc1` [Telmisartan], the solubility in words result was “practically insoluble”.

Consider `O=P(O)(O)C(O)(Cn1ccnc1)P(=O)(O)O` [Zoledronic acid monohydrate], for which the solubility in words result is given as “sparingly soluble”.
